For assay [1], the target named is T1, rat SERT (Rattus norvegicus, UniProt P31652).
T1 construct: from tissue; host or cells: Sprague-Dawley rat cerebral cortex membranes
As to the kind of experiment: Rat monoamine transporter binding assay, SERT. The settings on record: [3H]-citalopram, Cerebral cortex. Here is the method: (§1) Male Sprague–Dawley rats were killed by cervical dislocation, and their brains were rapidly removed and then dissected on ice. The cerebral cortex, hypothalamus and striatum were homogenised in 4 mL of assay buffer (50 mM Tris–HCl buffer, pH 7.4.) and centrifuged at 40,000× g for 10 min at 4 °C. The pellets were centrifuged twice at 20,000× g and then resuspended in 4 mL of assay buffer. […] Bio-Rad protein assay reagents (1:5 ratio) were used to analyse the protein concentration of the synaptosomal suspension.
(§2) All data for inhibition curves were analysed by nonlinear regression using Prism software (GraphPad Software Inc., San Diego, CA) to determine IC50 values. For the microdialysis experiments, two-way repeated-measures ANOVA followed by Tukey’s test was used to compare the percentage increase over baseline between groups, time and treatment as independent factors, and time as the repeated factor.

In assay [2] the target is T2, rat DAT (Rattus norvegicus, UniProt P23977).
T2 construct: from tissue; host or cells: Sprague-Dawley rat brain membranes (probably striatum)
The settings on record: [3H]-win35,428, Striatum, read-out: Ki values, DAT binding. Here is the method:
as §1, §2

In assay [3] the target is T3, hNET (Homo sapiens, UniProt P23975).
T3 construct: expressed in transfected cells
Briefly: [3H]-NE uptake in transporter-transfected HEK293 cells. It is filed as cell-based. The settings on record: HEK293 cell line, read-out: IC50 values, uptake of [3H]-NE (NET). Here is the method: The uptake of 5-HT, NE and DA into HEK293 cells stably expressing human transporters was determined using methods previously described with slight modifications. Briefly, the culture medium was removed from cells, and the cells were washed once with phosphate-buffered saline. Krebs-Ringers-HEPES (KRH) assay buffer (100 μL/well, containing 120 mM NaCl, 4.7 mM KCl, 2.2 mM CaCl2, 1.2 mM MgSO4, 1.2 mM […], 10 mM HEPES, pH 7.4) was then added. Various concentrations of drugs were administered to cells in a 24-well plate. The uptake was initiated by the addition of [^3H]-5-HT (50 nM), [^3H]-NE (80 nM), or [^3H]-DA (50 nM). Uptake was terminated by five washes using cold KRH assay buffer after 10-min incubation at 37 °C. The cells were solubilised using 400 μL of scintillation fluid and counted using a Packard Top Count scintillation counter.
as §2

Assay [4] has as its target T4, D3 (Homo sapiens, UniProt P35462).
T4 construct: expressed in transfected cells; host or cells: CHO cell lines
As to the kind of experiment: CNS receptor binding, dopamine D3. The settings on record: CHO cell lines, [3H]-spiperone(1), read-out: IC50 values for albiflorin. The method, then:
(§3) Albiflorin (10 μM) was tested for numerous other potential binding targets by using standard receptor binding procedures. The tested targets included the following receptors: D1, D2, D3, D4, D5, 5-HT1A, 5-HT1B, 5-HT1D, 5-HT2a, 5-HT2C, 5-HT3, 5-HT5A, 5-HT6, 5-HT7, α1A, α1B, α2A, β1, M1, M2, M3, M4, M5, μ, κ, δ, A1, A2A, H1, H2, H3, H4.

Assay [5] concerns the target 5-HT1A (Homo sapiens, UniProt P08908). Briefly: CNS receptor binding, 5-HT1A. The settings on record: HEK293 cell line, [3H]-8-OH-DPAT(2). The method, then:
as §3

Assay [6] has as its target 5-HT1D (Homo sapiens, UniProt P28221). As to the kind of experiment: CNS receptor binding, 5-HT1D. The settings on record: HEK293 cell line, [3H]-LSD(10). Here is the method:
as §3

Assay [7] has as its target 5-HT6 (Homo sapiens, UniProt P50406). As to the kind of experiment: CNS receptor binding, 5-HT6. The settings on record: HEK293 cell line, [3H]-LSD(1). Here is the method: as §3
For assay [8], the target named is α1B (Homo sapiens, UniProt P35368). As to the kind of experiment: CNS receptor binding, NE receptor α1B. The settings on record: HEK293 cell line, [3H]-parzosin(1). The method, then: as §3
Assay [9] deals with κ (Homo sapiens, UniProt P41145). Briefly: CNS receptor binding, opioid κ. The settings on record: CHO cell line, [3H]-dipnorphine(1). Here is the method: as §3
Assay [10] deals with δ (Homo sapiens, UniProt P41143). Briefly: CNS receptor binding, opioid δ. The settings on record: CHO cell line, [3H]-dipnorphine(1). The method, then: as §3
Assay [11] addresses A1 (Homo sapiens, UniProt P30542). Briefly: CNS receptor binding, adenosine A1. The settings on record: CHO cell line, [3H]-DPCPX(1). Here is the method:
as §3

Assay [12] has as its system hypothalamic NE levels. As to the kind of experiment: In vivo microdialysis, extracellular NE. Also noted: species or system rats. The method, then:
The effect of albiflorin on extracellular monoamine levels in […] was determined using methods previously described. Microdialysis probes (CMA Microdialysis) with an active membrane surface of 2 mm were perfused with artificial cerebrospinal fluid (125 mM NaCl, 3 mM KCl, 0.75 mM MgSO4 and 1.2 mM CaCl2, pH 7.4) in situ for at least 18 h before experimentation. The microdialysis probe was then implanted via the guide cannula into the hypothalamus and perfused with artificial cerebral spinal fluid at a flow rate of 1 μL/min. A 3-h stabilisation period was allowed after probe implantation, and dialysate sampling was conducted according to previously described methods. […] All subsequent values were expressed as a percentage of the mean preinjection value (i.e., percentage of baseline). […] For a minimum of 3 h after albiflorin administration, dialysis samples were collected every 20 min and analysed to determine the levels of NE, 5-HT and DA. […] A 20-μL sample from the hypothalamus was analysed for 5-HT, NE and DA content using methods described previously. […] External standard curves were used to quantify the amounts of NE, 5-HT and DA in each sample, which was calculated using the area under the curve.
All data for inhibition curves were analysed by nonlinear regression using Prism software (GraphPad Software Inc., San Diego, CA) to determine IC50 values. […]

[13] abbreviates: read-out: IC50 values for albiflorin.

Chain of δ (P41143 whole entry): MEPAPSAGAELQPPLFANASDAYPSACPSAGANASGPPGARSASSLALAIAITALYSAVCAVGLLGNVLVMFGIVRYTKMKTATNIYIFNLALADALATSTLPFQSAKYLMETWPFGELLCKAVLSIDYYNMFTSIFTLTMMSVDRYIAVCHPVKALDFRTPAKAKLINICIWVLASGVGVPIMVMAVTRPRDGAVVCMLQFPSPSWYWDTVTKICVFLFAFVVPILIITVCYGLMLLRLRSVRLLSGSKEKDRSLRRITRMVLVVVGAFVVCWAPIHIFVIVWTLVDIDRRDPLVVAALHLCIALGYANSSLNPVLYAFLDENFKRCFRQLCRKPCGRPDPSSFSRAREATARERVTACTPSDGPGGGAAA
Chain of 5-HT6 (P50406 whole entry): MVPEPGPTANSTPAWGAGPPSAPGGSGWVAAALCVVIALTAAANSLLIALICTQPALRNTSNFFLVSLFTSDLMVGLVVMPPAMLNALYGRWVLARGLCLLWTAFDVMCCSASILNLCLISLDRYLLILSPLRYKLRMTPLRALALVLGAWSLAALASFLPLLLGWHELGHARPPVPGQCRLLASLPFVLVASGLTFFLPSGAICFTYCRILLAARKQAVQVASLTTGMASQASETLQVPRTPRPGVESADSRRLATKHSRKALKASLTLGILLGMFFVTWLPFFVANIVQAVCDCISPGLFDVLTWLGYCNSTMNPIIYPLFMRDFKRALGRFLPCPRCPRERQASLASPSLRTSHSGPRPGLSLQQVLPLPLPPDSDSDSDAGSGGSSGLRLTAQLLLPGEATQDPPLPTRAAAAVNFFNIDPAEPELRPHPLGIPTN
Chain of α1B (P35368 whole entry): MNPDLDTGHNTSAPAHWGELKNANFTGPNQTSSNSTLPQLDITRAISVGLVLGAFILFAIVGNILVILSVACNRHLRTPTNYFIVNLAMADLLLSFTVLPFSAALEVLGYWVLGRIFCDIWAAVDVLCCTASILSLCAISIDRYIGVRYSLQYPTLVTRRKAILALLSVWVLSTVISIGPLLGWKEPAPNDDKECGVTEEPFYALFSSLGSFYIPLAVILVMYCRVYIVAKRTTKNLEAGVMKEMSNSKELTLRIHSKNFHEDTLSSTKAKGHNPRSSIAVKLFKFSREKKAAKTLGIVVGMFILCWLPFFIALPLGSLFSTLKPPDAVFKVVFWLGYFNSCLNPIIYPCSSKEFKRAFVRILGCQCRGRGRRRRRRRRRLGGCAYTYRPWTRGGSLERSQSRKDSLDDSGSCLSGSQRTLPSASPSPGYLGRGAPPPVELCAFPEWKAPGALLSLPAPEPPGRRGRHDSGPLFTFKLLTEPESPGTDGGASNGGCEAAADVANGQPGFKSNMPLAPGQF
Chain of 5-HT1A (P08908 whole entry): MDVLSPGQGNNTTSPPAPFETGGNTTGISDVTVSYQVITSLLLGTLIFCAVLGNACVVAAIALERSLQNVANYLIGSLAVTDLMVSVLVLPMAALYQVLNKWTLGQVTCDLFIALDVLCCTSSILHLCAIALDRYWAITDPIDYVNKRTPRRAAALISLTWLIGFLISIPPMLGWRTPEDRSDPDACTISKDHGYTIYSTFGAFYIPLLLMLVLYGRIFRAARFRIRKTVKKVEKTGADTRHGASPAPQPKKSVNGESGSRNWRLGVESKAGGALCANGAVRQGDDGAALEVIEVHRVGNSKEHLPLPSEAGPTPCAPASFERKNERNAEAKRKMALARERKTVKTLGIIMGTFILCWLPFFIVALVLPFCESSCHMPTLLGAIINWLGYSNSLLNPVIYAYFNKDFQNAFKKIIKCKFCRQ
Chain of 5-HT1D (P28221 whole entry): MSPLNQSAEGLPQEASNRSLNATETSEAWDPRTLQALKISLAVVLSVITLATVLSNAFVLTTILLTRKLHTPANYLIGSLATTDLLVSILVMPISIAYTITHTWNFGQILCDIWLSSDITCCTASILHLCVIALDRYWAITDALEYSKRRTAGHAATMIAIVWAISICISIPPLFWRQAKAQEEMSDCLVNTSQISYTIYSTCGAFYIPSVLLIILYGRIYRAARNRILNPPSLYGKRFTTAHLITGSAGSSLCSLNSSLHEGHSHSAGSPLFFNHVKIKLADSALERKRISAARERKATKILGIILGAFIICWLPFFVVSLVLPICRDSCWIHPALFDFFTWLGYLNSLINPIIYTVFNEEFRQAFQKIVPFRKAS
Chain of A1 (P30542 whole entry): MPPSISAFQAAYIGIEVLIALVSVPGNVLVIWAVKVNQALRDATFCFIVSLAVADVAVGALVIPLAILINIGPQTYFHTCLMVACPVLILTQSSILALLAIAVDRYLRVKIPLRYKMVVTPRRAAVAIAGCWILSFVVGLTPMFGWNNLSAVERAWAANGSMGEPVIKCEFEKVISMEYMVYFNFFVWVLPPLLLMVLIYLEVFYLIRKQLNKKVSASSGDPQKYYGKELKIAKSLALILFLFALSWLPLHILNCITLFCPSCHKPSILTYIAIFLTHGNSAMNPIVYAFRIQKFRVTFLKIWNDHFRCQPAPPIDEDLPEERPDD
Chain of κ (P41145 whole entry): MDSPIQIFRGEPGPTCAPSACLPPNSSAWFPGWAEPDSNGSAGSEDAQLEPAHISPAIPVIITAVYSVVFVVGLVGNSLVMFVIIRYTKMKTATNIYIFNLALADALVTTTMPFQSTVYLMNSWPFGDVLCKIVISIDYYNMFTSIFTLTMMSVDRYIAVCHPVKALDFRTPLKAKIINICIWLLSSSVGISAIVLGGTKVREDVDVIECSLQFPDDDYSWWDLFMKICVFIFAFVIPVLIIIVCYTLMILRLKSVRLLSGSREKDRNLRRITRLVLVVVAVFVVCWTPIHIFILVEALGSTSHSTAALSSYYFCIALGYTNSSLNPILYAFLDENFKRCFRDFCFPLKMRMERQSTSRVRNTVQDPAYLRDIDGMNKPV
T4 sequence (P35462 whole entry): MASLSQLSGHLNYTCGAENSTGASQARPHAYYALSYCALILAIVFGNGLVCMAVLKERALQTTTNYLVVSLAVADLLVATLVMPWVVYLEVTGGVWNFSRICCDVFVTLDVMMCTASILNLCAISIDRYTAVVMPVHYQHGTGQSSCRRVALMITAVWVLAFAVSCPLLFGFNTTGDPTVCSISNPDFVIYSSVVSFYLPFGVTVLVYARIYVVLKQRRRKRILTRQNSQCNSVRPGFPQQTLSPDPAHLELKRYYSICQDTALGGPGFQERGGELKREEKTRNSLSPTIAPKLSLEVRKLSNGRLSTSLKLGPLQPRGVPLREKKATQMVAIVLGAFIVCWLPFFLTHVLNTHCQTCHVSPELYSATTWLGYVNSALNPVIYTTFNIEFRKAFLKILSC
T3 sequence (P23975 whole entry): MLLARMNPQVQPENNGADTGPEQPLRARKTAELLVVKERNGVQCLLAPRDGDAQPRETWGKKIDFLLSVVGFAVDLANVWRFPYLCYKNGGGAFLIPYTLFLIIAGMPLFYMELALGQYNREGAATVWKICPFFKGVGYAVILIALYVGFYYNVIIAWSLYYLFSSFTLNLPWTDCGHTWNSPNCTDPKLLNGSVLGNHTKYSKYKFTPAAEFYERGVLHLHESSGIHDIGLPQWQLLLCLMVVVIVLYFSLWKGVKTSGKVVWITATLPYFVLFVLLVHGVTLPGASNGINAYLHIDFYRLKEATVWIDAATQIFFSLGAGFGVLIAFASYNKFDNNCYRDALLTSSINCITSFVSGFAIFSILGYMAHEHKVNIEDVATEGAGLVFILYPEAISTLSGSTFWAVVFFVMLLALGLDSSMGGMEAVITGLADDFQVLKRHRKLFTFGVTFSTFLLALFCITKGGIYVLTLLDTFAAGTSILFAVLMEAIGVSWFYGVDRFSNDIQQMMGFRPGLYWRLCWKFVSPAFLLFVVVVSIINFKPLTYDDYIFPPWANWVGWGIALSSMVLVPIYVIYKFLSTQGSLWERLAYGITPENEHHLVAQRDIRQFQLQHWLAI
T2 sequence (P23977 whole entry): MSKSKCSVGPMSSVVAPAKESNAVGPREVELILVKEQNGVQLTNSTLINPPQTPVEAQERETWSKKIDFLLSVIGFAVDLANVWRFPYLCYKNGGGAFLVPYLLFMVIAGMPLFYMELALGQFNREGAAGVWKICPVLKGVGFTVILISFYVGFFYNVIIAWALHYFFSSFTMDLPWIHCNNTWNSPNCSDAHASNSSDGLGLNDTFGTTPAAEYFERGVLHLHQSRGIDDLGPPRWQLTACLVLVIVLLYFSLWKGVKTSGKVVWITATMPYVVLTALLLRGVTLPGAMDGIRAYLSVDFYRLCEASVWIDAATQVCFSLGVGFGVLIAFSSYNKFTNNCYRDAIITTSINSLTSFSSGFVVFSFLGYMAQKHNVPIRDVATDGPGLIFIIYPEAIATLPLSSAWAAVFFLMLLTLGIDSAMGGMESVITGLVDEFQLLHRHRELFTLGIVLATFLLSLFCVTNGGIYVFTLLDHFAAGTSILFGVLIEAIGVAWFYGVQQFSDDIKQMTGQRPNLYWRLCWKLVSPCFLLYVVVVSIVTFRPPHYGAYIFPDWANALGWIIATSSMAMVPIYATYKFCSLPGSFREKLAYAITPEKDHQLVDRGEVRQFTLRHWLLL

What is called Ki is a measure of affinity in units of concentration, obtained from inhibition or displacement. As a reminder, the IC50 is the midpoint of a concentration-inhibition curve. With `C[C@]12C[C@@H](O)[C@@H]3C[C@@]1(O[C@@H]1O[C@H](CO)[C@@H](O)[C@H](O)[C@H]1O)[C@@]3(COC(=O)c1ccccc1)C(=O)O2` [albiflorin, Albiflorin], the Ki in [1] was 0.00525 ± 0.00017 µM; in assay [2], 3.656 ± 0.0254 µM. In addition, the IC50 in assay [3] was 0.00036 ± 8e-05 µM; in assay [4], 3.66 ± 0.212 µM; in assay [5] (setting [13]) it was 4 ± 0.662 µM; in [6] (setting [13]) it was above 10 µM; in assay [7] (setting [13]), above 10 µM; in [8] (setting [13]), above 10 µM. In addition, the IC50 is above 10 µM in assay [9] (setting [13]), 3.66 ± 0.201 µM in assay [10] (setting [13]) and above 10 µM in [11] (setting [13]). Also, the “% Inhibition of binding at 10 μM albiflorin” value worked out at 69.60% in assay [5]; 22.36% in [6]; 22.36% in assay [7]; 12.33% in [8]; 32.33% in assay [9]; 66.33% in assay [10]. Besides, the “% Inhibition of binding at 10 μM albiflorin” value in assay [11] is listed as 21.23%. Besides, in [12] (acute oral administration, 3.5, 7.0, 14.0 mg/kg, freely moving rats), the “effect on hypothalamic NE levels” value was “dose- and time-dependent increase”. For the same molecule, the “time of peak NE increase after administration” value in assay [12] (oral, rats, microdialysis) is 1 h.

Values taken from publication PMC5028780, “Receptor and transporter binding and activity profiles of albiflorin extracted from Radix paeoniae Alba” (Scientific Reports, 2016).
